Data reported in patent publication US8637554B2, “Methods for treating thyroid cancer” (The Trustees of the University of Pennsylvania, priority 2008, dated 2014).
Where “and” joins values, the source holds several entries; their conditions need not be identical. Identical values can stand only once. Entries after “also recorded” stand apart in the source; their conditions may differ.

Columns and labels:
Format in all cases: in vivo, human
[1] = system: solid malignancies (tumor neovasculature); experiment: DCE-MRI (Ktr) in CA4P clinical trials
Protocol: The results in the CA4P trials were variable. In DCE-MRI, the rate constant Ktrans (Ktr), representing the rate of passage of gadolinium from the plasma into the tumor interstitium, is determined. Ktr itself is determined as a function of both tumor blood flow and vascular permeability, thus serving as a marker of the status of the tumor neovasculature.

[2] = system: metastatic thyroid carcinoma; experiment: Open-label phase II study of oral sorafenib in metastatic thyroid carcinoma: best response by RECIST, PFS/TTP
Source text: Eligible patients were >18 years old with metastatic or unresectable thyroid carcinoma for which curative measures were no longer effective. Patients had evidence of measurable disease by RECIST criteria. All patients enrolled had evidence of disease progression in the year prior to initiation of treatment. Prior radioactive iodine treatments and one prior biologic treatment (kinase inhibitor, vaccine or antibody-based therapy) were allowed, but not within 3 weeks of treatment. […] Pre-menopausal women were required to have a negative pregnancy test and all patients of were required to use contraception.
Patients were ineligible if they had previous exposure to a Ras pathway inhibitor (including trastuzumab, EGFR inhibitors, farnesyl transferase inhibitors or MEK inhibitors) or were unable to swallow and retain oral pills. All patients provided written informed consent prior to enrollment on the trial. The study protocol was approved by the Institutional Review Board of the University of Pennsylvania.
(§1) This was an open-label, single institution phase II study of oral sorafenib in patients with metastatic thyroid carcinoma, including differentiated, poorly differentiated, medullary, and anaplastic subtypes. […] A cycle was defined as 4 weeks. Screening evaluations were completed within 2 weeks prior to the start of study drug, including medical history, demography, review of prior treatment, physical exam, 12-lead EKG, and laboratory evaluations including serum thyroid stimulating hormone (TSH) and thyroglobulin, and urinalysis. Radiological tests to identify target lesions were performed within 4 weeks of the first dose of study drug.
(§2) After beginning treatment, patients were followed at four-week intervals. At each visit, a history and physical examination were performed, and a CBC, chemistry panel, TSH and thyroglobulin drawn. Patients were assessed for new symptoms, compliance with study medications (pill count), and concomitant medications. Dose adjustments were made as needed for toxicity. Response was assessed radiographically after eight and sixteen weeks of treatment and every twelve weeks thereafter.
(§3) The study endpoints of best objective response rate and stable disease were measured based on the findings on computed tomography (CT) or magnetic resonance imaging (MRI) using RECIST. Additional endpoints included best response, duration of response and time to disease progression (TTP) on the basis of RECIST, clinical progression, or death. While TTP was the original endpoint, PFS and TTP were identical in this study, and PFS have been used in this report as it has become the more standard progression endpoint. All responses were confirmed by a study-designated radiologist. Adverse events were graded with the use of Common Terminology Criteria for Adverse Events, version 3.0 (CTCAE v3.0).
This study was designed to exclude the null hypothesis response rate of 5% using a Simon two-stage design; the first stage included 30 patients, with an optional second stage including 25 additional patients if at least one response was observed. The observed response rate was tested against the null rate of 5% using an exact test for binomial proportions. Estimates of PFS (time from beginning on study drug to earlier of progression or death) with associated 95% confidence intervals were obtained using the method of Kaplan and Meier. Comparison of PFS among histological subtypes was conducted using the logrank test. All enrolled patients who received at least one day of treatment were included in this intent-to-treat analysis.
2) Evidence of measurable disease by RECIST criteria 3) Any number of prior radioactive iodine treatments and up to one prior biologic treatment.
Primary Endpoint: Efficacy of sorafenib (objective response rate) in patients with metastatic thyroid carcinoma.
Patients on study were monitored with CT scans every 2 months and PET scans prior to beginning therapy and 4 weeks after starting treatment. […]

serum thyroglobulin = experiment: Serum thyroglobulin (sTG) monitoring in patients on sorafenib
Source text: as §1, §2
sTG levels are monitored monthly as part of the clinical trial. As sTG can rise due inadequate suppression of TSH, sTG levels are analyzed in the context of the serum TSH. In patients where […]. In addition, high levels of anti sTG antibodies can render the sTG levels un-interpretable. To date one patient has TSH that was not adequately controlled, and a second patient with anti sTG antibodies in excess of 1000 IU/ml. These patients are excluded from this analysis. sTG levels are correlated with clinical outcomes, and results of imaging and tissue analysis as described in the section on statistical analysis below.

p-AKT = experiment: Immunohistochemistry of patient tumor tissue before and on sorafenib: p-AKT
Source text: (§4) Paraffin embedded tumor specimens from the patients' primary surgery and from lymph node biopsies after two weeks (Patient 1) and 17 months on treatment (Patient 2) were obtained. Thin (5 μm) sections from tumor tissue were cut and stained for the proliferation marker Ki-67 (Dakocytomation), and signaling markers p-ERK and p-AKT (Cell Signaling Technology) which are downstream indicators of BRAF and VEGFR2 activity. P-ERK is good reporter for BRAF activity, while p-AKT likely reflects signaling through several pathways including VEGFR. Slides were counterstained with hematoxylin and mounted in vectashield (Vector Labs). Two independent, blinded pathologists scored the slides based on intensity of stain and percent of cells staining positively.
(§5) Proliferation and cellular signaling in the tumor cell (TC) and the endothelial cell (EC) compartments were evaluated by immunohistochemistry (IHC).

Ki-67 = experiment: Immunohistochemistry of patient tumor tissue before and on sorafenib: Ki-67
Source text: as §4, §5

[3] = Phase II study of sorafenib: adverse events (CTCAE v3.0), dose changes, TSH
Source text: as §1, §2, §3

p-ERK = experiment: Immunohistochemistry of patient tumor tissue before and on sorafenib: p-ERK
Source text: as §4, §5

[4] = system: metastatic papillary thyroid carcinoma (mPTC); experiment: Response by CT and PET scan in two patients with metastatic papillary thyroid carcinoma on sorafenib
Protocol: Patient 1: A person palpated a right-sided neck mass in August 2004. The patient underwent total thyroidectomy with lymph node dissection and pathology confirmed mPTC in one of eight lymph nodes. They were treated with ^131I and placed on thyroid hormone replacement. In August 2005, an enlarged lymph node was palpated in their neck.
Treatment began on Apr. 18, 2006. Toxicity was assessed at every four weeks and response to treatment was assessed using serial CT and PET scans.
Patient 2: A person presented with a sore throat in March 2002. Their physician noted only right sided cervical lymphadenopathy. […] Thyroidectomy and right neck lymph node dissection removed a 2.5 cm tall-cell PTC with 12 of 49 lymph nodes containing mPTC.
PET scans were obtained on a dedicated whole-body PET scanner (C-PET, Phillips). At FDG injection, patients had fasted for 6 hours and blood glucose levels were less than 150 mg/dL. Image acquisition started 60 min following intravenous administration of FDG at a dose of 1.85 MBq/kg (0.05 mCi/kg) body weight. A transmission scan was obtained for attenuation correction.

[5] = Table 3 summary, 42 total / 31 evaluable patients
[6] = first 30 patients as of May 25, 2008, follow-up Kaplan-Meier analysis
[7] = first 30 patients, intention-to-treat
[8] = first 30 patients, intention-to-treat, 400 mg orally twice a day
[9] = Patient 1, after 2 weeks of treatment
[10] = Patient 2, after 17 months of treatment

## COc1ccc(/C=C\c2cc(OC)c(OC)c(OC)c2)cc1OP(=O)(O)O [CA4P]
[1]; certain patients, larger pre-treatment tumor Ktr values, incl. two with thyroid cancer
  Ktr response: Strong Ktr responses
[1]; other patients
  Ktr response: little or no effect

## CNC(=O)c1cc(Oc2ccc(NC(=O)Nc3ccc(Cl)c(C(F)(F)F)c3)cc2)ccn1 [sorafenib]
[2]; [5]
  Clinical benefit (PR + SD) rate: 72%
  Clinical benefit (PR + SD), number of patients: 13
  Partial response (≧30%) rate: 24%
  Partial response (≧30%), number of patients: 10
  Stable disease rate: 48%
  Stable disease, number of patients: 19
[2]; all 30 patients, Kaplan-Meier, analysis four months after last patient started
  Overall median progression free survival: 79 weeks and 79.0 weeks
[2]; differentiated thyroid cancers alone, Kaplan-Meier
  DTC patients median progression free survival: 84 weeks
[2]; first 30 patients
  Largest decrease in target lesions by RECIST (upper end of range of responses): 80%
[2]; [6]
  Median time to progression / PFS, all patients: 72 weeks
  Median time to progression / PFS, differentiated thyroid cancers (DTC): 84 weeks
[2]; [7]
  Clinical benefit (PR + SD), number of patients: 23
  Partial response (PR, ≧30%), number of patients: 7
  Progressive disease as best response, number of patients: 2
  Progressive disease as best response, rate: (3%)
  Stable disease (SD), number of patients: 16
[2]; [8]
  Best response by RECIST: complete response rate: (0%)
  Best response by RECIST: complete response, number of patients: 0
[2]; patient with poorly differentiated thyroid cancer, at 4 weeks, before progression
  Decrease in size of visible shoulder nodule: 50%
[2]; person, follicular thyroid cancer, after 16 weeks, FIG. 3A
  CT response of target lesions, lung metastases: partial response
[2]; person, papillary thyroid cancer, miliary lung metastases, after 33 weeks, FIG. 3B
  CT burden of lung disease: marked improvement
[2]; two patients of FIG. 3, within the first six months of treatment
  Disease symptoms (cough, dyspnea on exertion): complete resolution of their symptoms
Serum thyroglobulin; Seventeen of 19 patients with serial levels
  Patients with marked response in serum thyroglobulin levels: 95%
Serum thyroglobulin; approximately 15 new patients enrolled since November 2008, iodine non-avid metastatic thyroid cancer
  Thyroglobulin levels: increased
Serum thyroglobulin; inferred from thyroglobulin levels, iodine non-avid metastatic thyroid cancer
  Iodine uptake: effective in increasing the iodine uptake
Serum thyroglobulin; most patients, first two to four months
  Course of sTG early on treatment: falls precipitously; also recorded: dropped precipitously
Serum thyroglobulin; patient 5, stably suppressed TSH, FIG. 4
  Initial decline of serum thyroglobulin (sTG): 25 % baseline levels
Serum thyroglobulin; within four months of starting treatment
  Mean decrease in serum thyroglobulin: 70%
p-AKT; [9]
  p-AKT staining in ECs: decreased
  p-AKT staining in TCs: did not show any change
p-AKT; Patient 2, at 17 months
  p-AKT staining in ECs and TCs: slight increase
Ki-67; Patient 1, tissue after two weeks of treatment (pre-treatment 1% of TCs)
  Ki-67 positive cells: less than 1%
Ki-67; [10]
  Ki-67 positive TCs versus pre-treatment: no change in the number of positive cells
[3]; 30 patients
  Patients requiring drug holidays due to adverse events: 63%
  Patients who discontinued treatment due to adverse events: 20%
  Patients who experienced some weight loss: 60%
  Patients with doses reduced to control toxicities: 47%
[3]; CTCAE grade
  Toxicity leading to withdrawal, single patients: grade 3 rash; also recorded: grade 2 fatigue; also recorded: grade 4 liver toxicity
[3]; CTCAE v3.0
  Severity of treatment-related adverse events: predominantly of grade 1 or 2
[3]; Table 3 summary, 42 total patients
  Patients WD due to toxicity, number: 2
[3]; despite dose reductions and cessation
  Outcome of LFT elevations after eight weeks, one patient: died of liver failure
[3]; while on sorafenib, 30 patients
  Patients with rise in serum TSH to levels greater than 0.10 mIU/L: 33%
p-ERK; [9]
  p-ERK staining in ECs: no longer detected
  p-ERK staining in TCs: decreased
p-ERK; [10]
  p-ERK expression in ECs: markedly increased
  p-ERK staining in TCs: unchanged
[4]; Patient 1
  Progression-free survival: ≥ 1.3 years
[4]; Patient 1, after 12 months
  Decrease of target lesions (PR): 30%
[4]; Patient 1, after 12 weeks
  Decrease in size of lung lesions by RECIST: 25%
[4]; Patient 2
  Progression-free survival: ≥ 3.7 years
[4]; Patient 2, after 3.7 years on sorafenib
  Maintained partial response: 70%
[4]; Patient 2, after 12 weeks
  Decrease of largest target lesion: 52%
[4]; Patient 2, continued shrinkage after 20 weeks
  Decrease of largest target lesion: 72%
